This experiment has as its target T1, BRD4 (Homo sapiens, UniProt O60885).
T1 construct: fused on or other part: GST tag, fused on for capture by the AlphaLISA Glutathione Acceptor Beads
As to the kind of experiment: BRD4-H4 tetraacetylated Peptide Inhibition AlphaScreen. Particulars: GST-BRD4-BD1 (aa 44-168) or GST-BRD4-BD2 (aa 333-460) with biotinylated Acetyl-Histone H4 peptide; table does not state which bromodomain. The format is binding. The protocol: Biological Methods BRD4-H4 tetraacetylated Peptide Inhibition AlphaScreen
Compounds are diluted in serial dilution 1:5 in assay buffer from 10 mM stock in DMSO (100 μM start concentration) in white OptiPlate-384 (PerkinElmer). A mix consisting of 15 nM GST-BRD4-BD1 protein (aa 44-168) or 150 nM GST-BRD4-BD2 (aa 333-460) and 15 nM biotinylated Acetyl-Histone H4 (LysS, 8, 12, 16) peptide is prepared in assay buffer (50 mM HEPES pH=7.4; 25 mM NaCl; 0.05% Tween 20; 0.1% bovine serum albumin (BSA); 10 mM dithiothreitol (DTT)). 6 μl of the mix is added to the compound dilutions. Subsequently, 6 μl of premixed AlphaLISA Glutathione Acceptor Beads and AlphaScreen Streptavidin Donor Beads from PerkinElmer (in assay buffer at a concentration of 10 μg/ml each) are added and the samples are incubated for 30 min at RT in the dark (shaking 300 rpm). Afterwards, the signal is measured in a PerkinElmer Envision HTS
Multilabel Reader using the AlphaScreen protocol from PerkinElmer. Each plate contains negative controls where biotinylated Acetyl-Histone H4 peptide and GST-BRD4-BD1 or GST-BRD4-BD2 are left out and replaced by assay buffer. Negative control values are entered as low basis value when using the software GraphPad Prism for calculations. Furthermore, a positive control (probe molecule JQ1+ with protein/peptide mix) is pipetted. Determination of IC50 values are carried out using GraphPad Prism 3.03 software (or updates thereof).
A general note: Alpha assays give light when donor and acceptor beads are brought close together.

What is called IC50 is the concentration that inhibits the measured activity by half.

Structures are written as SMILES.

The compound `Cc1noc(C)c1-c1ccc2c(c1C)C(c1ccccc1)OC2=O` (centres unmarked) [Example 17, 5-(3,5-Dimethyl-isoxazol-4-yl)-4-methyl-3-phenyl-3H-isobenzofuran-1-one] had an IC50 of 1.08 µM.

The compound `Cc1ccccc1C1(O)C(=O)Nc2ccc(-c3c(C)noc3C)cc21` (centres unmarked) [Example 33, 5-(3,5-Dimethyl-isoxazol-4-yl)-3-hydroxy-3-o-tolyl-1,3-dihydro-indol-2-one] displayed a half-maximal inhibitory concentration (IC50) of 1.06 µM.

For the compound `Cc1noc(C)c1-c1ccc2c(c1)C(C)(c1ccccc1)C(=O)N2c1cccnc1` (centres unmarked) [Example 20, 5-(3,5-Dimethyl-isoxazol-4-yl)-3-methyl-3-phenyl-1-pyridin-3-yl-1,3-dihydro-indol-2-one], the 50% inhibitory concentration (IC50) worked out at 0.242 µM.

`Cc1noc(C)c1-c1ccc2c(c1)C(O)(c1cccs1)C(=O)N2` (centres unmarked) [Example 26, 5-(3,5-Dimethyl-isoxazol-4-yl)-3-hydroxy-3-thiophen-2-yl-1,3-dihydro-indol-2-one] displayed an IC50 of 0.32 µM. Consider `Cc1noc(C)c1-c1ccc2c(c1)C(O)(c1ccc(F)c(F)c1)C(=O)N2` (centres unmarked) [Example 28, 3-(3,4-Difluoro-phenyl)-5-(3,5-dimethyl-isoxazol-4-yl)-3-hydroxy-1,3-dihydro-indol-2-one], for which the 50% inhibitory concentration (IC50) turned out to be 0.203 µM. `Cc1noc(C)c1-c1ccc2c(c1)C(C)(c1ccccc1)C(=O)N2` (centres unmarked) [Example 18, 5-(3,5-Dimethyl-isoxazol-4-yl)-3-methyl-3-phenyl-1,3-dihydro-indol-2-one] returned an IC50 of 0.054 µM. As to `COc1cc(F)cc(C2c3cc(-c4c(C)noc4C)ccc3C(=O)N2C)c1` (centres unmarked) [Example 1, 5-(3,5-Dimethyl-isoxazol-4-yl)-3-(3-fluoro-5-methoxy-phenyl)-2-methyl-2,3-dihydro-isoindol-1-one], half-maximal inhibition (IC50) required 0.38 µM. To `Cc1noc(C)c1-c1ccc2c(c1)C(C1CCCCC1)N(C)C2=O` (centres unmarked) [Example 6, 3-Cyclohexyl-5-(3,5-dimethyl-isoxazol-4-yl)-2-methyl-2,3-dihydro-isoindol-1-one] belongs 0.043 µM. With `Cc1noc(C)c1-c1ccc2c(c1)C(C)(c1ccccc1)N(C)C2=O` (centres unmarked) [Example 10, 5-(3,5-Dimethyl-isoxazol-4-yl)-2,3-dimethyl-3-phenyl-2,3-dihydro-isoindol-1-one], half-maximal inhibition (IC50) required 0.038 µM.

For the compound `Cc1noc(C)c1-c1ccc2c(c1)C(O)(C1CCCC1)C(=O)N2` (centres unmarked) [Example 27, 3-Cyclopentyl-5-(3,5-dimethyl-isoxazol-4-yl)-3-hydroxy-1,3-dihydro-indol-2-one], the IC50 amounted to 0.698 µM. This IC50 is about 18-fold higher than that of the compound before. To `Cc1noc(C)c1-c1ccc2c(c1)C(c1ccccc1)N(C1CCN(C)CC1)C2=O` (centres unmarked) [Example 2, 5-(3,5-Dimethyl-isoxazol-4-yl)-2-(1-methyl-piperidin-4-yl)-3-phenyl-2,3-dihydro-isoindol-1-one] belongs 0.057 µM; to `Cc1noc(C)c1-c1ccc2c(c1)C(O)(c1cccnc1)C(=O)N2` (centres unmarked) [Example 31, 5-(3,5-Dimethyl-isoxazol-4-yl)-3-hydroxy-3-pyridin-3-yl-1,3-dihydro-indol-2-one], 0.395 µM.

As to `Cc1noc(C)c1-c1ccc2c(c1)C1(c3ccccc3)OCCN1C2=O` (centres unmarked) [Example 14, 8-(3,5-Dimethyl-isoxazol-4-yl)-9b-phenyl-2,3-dihydro-9bH-oxazolo[2,3-a]isoindol-5-one], the IC50 came to 0.072 µM.

As for `Cc1cc(-c2c(C)noc2C)cc2c1C(=O)N(C)C2c1ccccc1` (centres unmarked) [Example 11, 5-(3,5-Dimethyl-isoxazol-4-yl)-2,7-dimethyl-3-phenyl-2,3-dihydro-isoindol-1-one], the IC50 came out at 2.49 µM. To `Cc1noc(C)c1-c1ccc2c(c1)C(c1ccccc1)N(CCN(C)C)C2=O` (centres unmarked) [Example 4, 2-(2-Dimethylamino-ethyl)-5-(3,5-dimethyl-isoxazol-4-yl)-3-phenyl-2,3-dihydro-isoindol-1-one] belongs 0.065 µM; to `Cc1noc(C)c1-c1ccc2c(c1)C1(c3ccccc3)OCCCN1C2=O` (centres unmarked) [Example 15, 9-(3,5-Dimethyl-isoxazol-4-yl)-10b-phenyl-3,4-dihydro-2H,10bH-[1,3]oxazino[2,3-a]isoindol-6-one], 0.036 µM; to `Cc1noc(C)c1-c1ccc2c(c1)C(C1CCC3(CCC3)CC1)N(C)C2=O` (centres unmarked) [Example 7, 5-(3,5-Dimethyl-isoxazol-4-yl)-2-methyl-3-spiro[3.5]non-7-yl-2,3-dihydro-isoindol-1-one], 1.09 µM. To `Cc1noc(C)c1-c1ccc2c(c1)C(O)(C1CCCCC1)C(=O)N2` (centres unmarked) [Example 30, 3-cyclohexyl-5-(3,5-dimethyl-isoxazol-4-yl)-3-hydroxy-1,3-dihydro-indol-2-one] belongs 0.196 µM; to `Cc1noc(C)c1-c1ccc2c(c1)C(c1cc(F)cc(F)c1)N(C)C2=O` (centres unmarked) [Example 5, 3-(3,5-Difluoro-phenyl)-5-(3,5-dimethyl-isoxazol-4-yl)-2-methyl-2,3-dihydro-isoindol-1-one], 0.229 µM; to `Cc1noc(C)c1-c1ccc2c(c1)C(O)(c1ccccc1CN1CCOCC1)C(=O)N2` (centres unmarked) [Example 23, 5-(3,5-Dimethyl-isoxazol-4-yl)-3-hydroxy-3-(2-morpholin-4-ylmethyl-phenyl)-1,3-dihydro-indol-2-one], 0.176 µM.

`Cc1noc(C)c1-c1ccc2c(c1)C(O)(c1ccccn1)C(=O)N2` (centres unmarked) [Example 32, 5-(3,5-Dimethyl-isoxazol-4-yl)-3-hydroxy-3-pyridin-2-yl-1,3-dihydro-indol-2-one] had a 50% inhibitory concentration (IC50) of 0.332 µM. For `Cc1cncc(C2(O)C(=O)Nc3ccc(-c4c(C)noc4C)cc32)c1` (centres unmarked) [Example 35, 5-(3,5-Dimethyl-isoxazol-4-yl)-3-hydroxy-3-(5-methyl-pyridin-3-yl)-1,3-dihydro-indol-2-one], the half-inhibitory concentration (IC50) is 1.04 µM. This IC50 lies about 3.1-fold higher than the previous one.

Turning to `Cc1noc(C)c1-c1ccc2c(c1)C(O)(C1CCOCC1)C(=O)N2` (centres unmarked) [Example 34, 5-(3,5-Dimethyl-isoxazol-4-yl)-3-hydroxy-3-(tetrahydro-pyran-4-yl)-1,3-dihydro-indol-2-one], the IC50 turned out to be 1.57 µM. Compared with the last compound, the IC50 is about 1.5-fold higher. `Cc1noc(C)c1-c1ccc2c(c1)C(c1ccccc1)N(C(C)C)C2=O` (centres unmarked) [Example 12, 5-(3,5-Dimethyl-isoxazol-4-yl)-2-isopropyl-3-phenyl-2,3-dihydro-isoindol-1-one] displayed an IC50 of 0.075 µM.

As for `COc1c(-c2c(C)noc2C)ccc2c1C(c1ccccc1)OC2=O` (centres unmarked) [Example 16, 5-(3,5-Dimethyl-isoxazol-4-yl)-4-methoxy-3-phenyl-3,1-isobenzofuran-1-one], the IC50 turned out to be 0.35 µM. The compound `Cc1noc(C)c1-c1ccc2c(c1)[C@](O)(c1ccccc1)C(=O)N2` [Example 22, 5-(3,5-Dimethyl-isoxazol-4-yl)-3-hydroxy-3-phenyl-1,3-dihydro-indol-2-one] had a 50% inhibitory concentration (IC50) of 0.048 µM.

The compound `Cc1noc(C)c1-c1ccc2c(c1)[C@H](c1ccccc1)N(C)C2=O` [Example 9, (S)-5-(3,5-Dimethyl-isoxazol-4-yl)-2-methyl-3-phenyl-2,3-dihydro-isoindol-1-one] yielded an IC50 of 0.014 µM. Turning to `Cc1noc(C)c1-c1ccc2c(c1)C(O)(c1ccccc1)C(=O)N2` (centres unmarked) [Example 21, 5-(3,5-Dimethyl-isoxazol-4-yl)-3-hydroxy-3-phenyl-1,3-dihydro-indol-2-one], the concentration for half-maximal inhibition (IC50) turned out to be 0.259 µM.

In turn, `Cc1noc(C)c1-c1ccc2c(c1)C(c1ccccc1)OC2=O` (centres unmarked) [Example 13, 5-(3,5-Dimethyl-isoxazol-4-yl)-3-phenyl-3H-isobenzofuran-1-one] showed a 50% inhibitory concentration (IC50) of 0.193 µM. To `Cc1noc(C)c1-c1ccc2c(c1)C(c1ccccc1)N(C)C2=O` (centres unmarked) [Example 8, 5-(3,5-Dimethyl-isoxazol-4-yl)-2-methyl-3-phenyl-2,3-dihydro-isoindol-1-one] belongs 0.055 µM; to `Cc1noc(C)c1-c1ccc2c(c1)C(O)(c1ccc(Cl)cc1)C(=O)N2` (centres unmarked) [Example 25, 3-(4-Chloro-phenyl)-5-(3,5-dimethyl-isoxazol-4-yl)-3-hydroxy-1,3-dihydro-indol-2-one], 0.295 µM; to `Cc1noc(C)c1-c1ccc2c(c1)C(C)(c1ccccc1)C(=O)N2C` (centres unmarked) [Example 19, 5-(3,5-Dimethyl-isoxazol-4-yl)-1,3-dimethyl-3-phenyl-1,3-dihydro-indol-2-one], 0.275 µM. The value for `Cc1noc(C)c1-c1ccc2c(c1)[C@](O)(c1ccccc1CN1CCOCC1)C(=O)N2` [Example 24, 5-(3,5-Dimethyl-isoxazol-4-yl)-3-hydroxy-3-(2-morpholin-4-ylmethyl-phenyl)-1,3-dihydro-indol-2-one] was 0.041 µM; that for `Cc1noc(C)c1-c1ccc2c(c1)C(c1ccccc1)N(CCCN(C)C)C2=O` (centres unmarked) [Example 3, 2-(3-Dimethylamino-propyl)-5-(3,5-dimethyl-isoxazol-4-yl)-3-phenyl-2,3-dihydro-isoindol-1-one] was 0.043 µM; that for `Cc1noc(C)c1-c1ccc2c(c1)C(O)(c1ccc3c(c1)OCO3)C(=O)N2` (centres unmarked) [Example 29, 3-Benzo[1,3]dioxol-5-yl-5-(3,5-dimethyl-isoxazol-4-yl)-3-hydroxy-1,3-dihydro-indol-2-one] was 0.541 µM.

The values are drawn from patent US9102684B2, “Indolinone analogues” (Boehringer Ingelheim International GmbH, priority 2013, dated 2015).
